From patent US20100324019A1 (priority 2007, published 2010)

Columns and labels:
Assay type in all cases: in vivo, human
[1] = test system: premature CVD patients by MTHFR C677T genotype; experiment: Plasma homocysteine (immunoassay) in 16-week riboflavin intervention trial, premature CVD patients; conditions: mean (SD)
From the text: (§1) Ethical approval was granted by both the Research Ethical Committee of the University of Ulster and Altnagelvin Hospital Trust, Londonderry, Northern Ireland. Premature CVD patients, males aged 55 years and females aged 65 years and under at time of event were recruited from the cardiac department of Altnagelvin hospital. Patients were indicated by a previous myocardial infarction (MI) or angina diagnosed by ECG changes. Potential participants (n=404) were screened for MTHFR genotype on the basis of a buccal swab sample. Those with the TT genotype were identified (n=54); these were age and sex matched with a similar number of patients with the CC or CT genotypes, resulting in a total of 197 patients who were invited to participate in the current intervention study (see FIG. 1). Exclusion criteria for all subjects were history of hepatic or renal disease, consumers of B-vitamin supplements, those taking medication known to interfere with folate metabolism, at least 3 months post MI prior to blood sampling. All volunteers provided written informed consent and completed a health and medical/lifestyle questionnaire which included questions regarding family history of CVD and smoking habits.
(§2) The study was a 16-week placebo controlled intervention trial. […] Non-fasting blood samples were collected at screening and post intervention either at Altnagelvin hospital, their workplace or their own homes.
One 30 ml blood sample was collected from each patient, one 9 ml EDTA tube for plasma and washed red cells, one 4 ml EDTA tube for the preparation of red blood cell lysates and the measurement of haemoglobin (HB) and packed cell volume (PCV); one 8 ml serum separation tube for serum extraction, one 5 ml serum separation tube for lipid profile analysis and one 4 ml sodium citrate tube for coagulation screening. The 9 ml EDTA was immediately wrapped in tin foil and placed on ice. Samples were centrifuged within 2 hours of sampling at 3000 rpm for 15 minutes. Plasma was removed and stored at −80° C. for plasma homocysteine and PLP analysis. The buffy layer was removed for confirmation of MTHFR genotyping and stored at −20° C. The remaining red blood cells were thrice washed with phosphate buffered saline (PBS) with the supernatant and remaining buffy layer being discarded after each wash. […] Serum was removed and stored at −80° C. for serum folate.
Plasma homocysteine was measured by immunoassay using the Abbott Imx analyser (Leino A., 1999, “Fully automated measurement of total homocysteine in plasma and serum on the Abbott IMx analyzer.” Clin. Chem, 45, 569-71). Serum folate and red blood cell folate concentrations were determined by microbiological assay using the cryopreserved, microtitre plate method (Molloy et al, 1997, “Microbiological assay for serum, plasma, and red cell folate using cryopreserved, microtiter plate method.” Methods Enzymol, 281, 43-53). Plasma PLP was determined by reverse-phase high pressure liquid chromatography (HPLC) with fluorescence detection (Bates et al, 1999, “Plasma pyridoxal phosphate and pyridoxic acid and their relationship to plasma homocysteine in a representative sample of British men and women aged 65 years and over.” British Journal of Nutrition, 1, 191-201). Identification of the MTHFR C677T genotype was carried out using the polymerase chain reaction (PCR) amplification followed by HinF1 (Frosst et al, 1995, “A candidate genetic risk factor for vascular disease: A common mutation in methylenetetrahydrofolate reductase.” Nat Genetc, 10, 111-113). […] Coagulation screening was measured by ACI Instrumentation Laboratories. HB and PCV were measured using Sysmex XE-2100 (Sysmex, UK Ltd. Milton Keynes UK) analyser and lipid profiles were measured using Abbott Architect CI 8200 analyser (Abbott Laboratories, USA). For all assays, samples were analysed blind, in duplicate and within 1 year of collection. […]

[2] = test system: premature CVD patients by MTHFR C677T genotype; experiment: Blood pressure in 16-week placebo controlled riboflavin intervention trial, premature CVD patients; conditions: for Diastolic blood pressure / Systolic blood pressure: mean (SD)
From the text: as §1, §2
(§3) Blood pressure measurements were recorded as the mean of two separate measurements taken 15 minutes apart using an Omcron 705CP electronic blood pressure monitor (Medisave, Dorset, UK). Weight (kg) and height in (m), were used to calculate BMI (weight (kg)/height^2 (m)). Waist circumference (cm) was also measured. All measurements were made using Seca approved equipment (Brosch Direct, Ltd, Peterborough, UK).
All statistical analysis was performed using the SPSS statistical package for the social sciences (version 11.0, SPSS UK Ltd., Chersey, United Kingdom). For normalisation purposes variables were log-transformed as appropriate prior to statistical analysis. One way ANOVA with Tukey's post hoc test was used to examine the differences in the baseline characteristics among the genotype groups. Categorical data were assessed using chi squared analysis. Correlation analysis was performed using bivariate Pearson correlation coefficients. […] P values<0.05 were considered significant.

[3] = test system: healthy subjects by MTHFR C677T genotype; experiment: Blood pressure response to riboflavin intervention in healthy individuals; conditions: for Diastolic blood pressure / Systolic blood pressure: healthy subjects, median
Procedure: as §3
Measurements were taken and recorded according to the procedures described in Example 1 above. The results obtained, namely the baseline characteristics of healthy subjects pre-screened and age-matched for MTHFR genotype (n=124), are shown in Table 4.
A placebo controlled intervention study in 81 healthy individuals was carried out.

[4] = CC genotype, premature CVD patients, Post 16 weeks riboflavin 1.6 mg/day, n = 32
[5] = CC genotype, premature CVD patients, Pre intervention, n = 32
[6] = CT genotype, premature CVD patients, Post 16 weeks riboflavin 1.6 mg/day, n = 35
[7] = CT genotype, premature CVD patients, Pre intervention, n = 35
[8] = TT genotype, premature CVD patients, 16 weeks low-dose riboflavin
[9] = TT genotype, premature CVD patients, Post 16 weeks riboflavin 1.6 mg/day, n = 25
[10] = TT genotype, premature CVD patients, Pre intervention, n = 25
[11] = estimated from the magnitude of blood pressure lowering in TT patients
[12] = CC genotype, After riboflavin 1.6 mg/d, 16 weeks
[13] = CC genotype, Before intervention
[14] = CT genotype, After riboflavin 1.6 mg/d, 16 weeks
[15] = CT genotype, Before intervention
[16] = TT genotype, After riboflavin 1.6 mg/d, 16 weeks
[17] = TT genotype, Before intervention

Cc1cc2nc3c(=O)[nH]c(=O)nc-3n(C[C@H](O)[C@H](O)[C@H](O)CO)c2cc1C [Riboflavin, riboflavin]
Homocysteine ([1]; CC genotype, Post 16 weeks riboflavin 1.6 mg/day, n = 32): 9.8 (3.6) μmol/l
Homocysteine ([1]; CC genotype, Pre intervention, n = 32): 10.1 (3.9) μmol/l
Homocysteine ([1]; CT genotype, Post 16 weeks riboflavin 1.6 mg/day, n = 35): 10.6 (6.3) μmol/l
Homocysteine ([1]; CT genotype, Pre intervention, n = 35): 10.5 (3.8) μmol/l
Homocysteine ([1]; TT genotype, Post 16 weeks riboflavin 1.6 mg/day, n = 25): 10.0 (3.1) μmol/l
Homocysteine ([1]; TT genotype, Pre intervention, n = 25): 11.3 (4.4) μmol/l
Diastolic blood pressure [2, 4]: 80.4 (12.0) mmHg
Systolic blood pressure [2, 4]: 133.4 (15.3) mmHg
Diastolic blood pressure [2, 5]: 80.1 (8.9) mmHg
Systolic blood pressure [2, 5]: 134.3 (14.9) mmHg
effect on blood pressure (either systolic or diastolic) ([2]; CC genotype, premature CVD patients, following riboflavin administration): no significant reduction
Diastolic blood pressure [2, 6]: 84.2 (9.2) mmHg
Systolic blood pressure [2, 6]: 135.4 (15.4) mmHg
Diastolic blood pressure [2, 7]: 86.0 (10.8) mmHg
Systolic blood pressure [2, 7]: 136.2 (16.9) mmHg
decrease in diastolic blood pressure [2, 8]: 8 units
decrease in systolic blood pressure [2, 8]: 11 units
effect on systolic and diastolic blood pressure [2, 8]: significant lowering
Diastolic blood pressure [2, 9]: 80.2 (14.2) mmHg
Systolic blood pressure [2, 9]: 131.6 (20.9) mmHg
Diastolic blood pressure [2, 10]: 88.1 (14.2) mmHg
Systolic blood pressure [2, 10]: 142.8 (22.1) mmHg
lowering of risk of heart disease estimated from meta-analyses [2, 11]: 29%
lowering of risk of stroke estimated from meta-analyses [2, 11]: 46%
effect on systolic or diastolic blood pressure ([3]; healthy cohort with the TT genotype, 1.6 mg/day for 16 weeks): no significant systolic or diastolic blood pressure lowering effect
effect on diastolic blood pressure ([3]; healthy individuals, CC group, 1.6 mg/day for 16 weeks): increase
Diastolic blood pressure [3, 12]: 86.5 mmHg
Systolic blood pressure [3, 12]: 143.5 mmHg
Diastolic blood pressure [3, 13]: 80.5 mmHg
Systolic blood pressure [3, 13]: 137.0 mmHg
Diastolic blood pressure [3, 14]: 89.0 mmHg
Systolic blood pressure [3, 14]: 150.0 mmHg
Diastolic blood pressure [3, 15]: 87.0 mmHg
Systolic blood pressure [3, 15]: 150.0 mmHg
Diastolic blood pressure [3, 16]: 88.5 mmHg
Systolic blood pressure [3, 16]: 145.0 mmHg
Diastolic blood pressure [3, 17]: 88.5 mmHg
Systolic blood pressure [3, 17]: 139.5 mmHg
